Columns and labels:
[1] = Half life at pH 7 buffer solution by LCMS method
Escherichia coli = assay: Antibacterial activity against Escherichia coli MC4100 incubated for 72 hrs; assay type: functional; conditions: str. K-12 substr. MC4100, 72 h
Staphylococcus aureus [2] = assay: Antibacterial activity against community acquired methicillin-resistant Staphylococcus aureus USA300-0114 incubated for 72 hrs; assay type: functional; conditions: USA300-0114, 72 h
Staphylococcus aureus [3] = assay: Antibacterial activity against methicillin-susceptible Staphylococcus aureus SH1000 incubated for 72 hrs; assay type: functional; conditions: SH1000, 72 h
Pseudomonas aeruginosa = assay: Antibacterial activity against Pseudomonas aeruginosa PAO1 incubated for 72 hrs; assay type: functional; conditions: PAO1, 72 h
[4] = Stability in buffer solution assessed as decomposition at pH 4 by LCMS analysis; assay type: physicochemical
[5] = Stability of the compound in pure water up to 72 hrs by LCMS analysis; assay type: physicochemical; conditions: read-out: Stability
Staphylococcus aureus [6] = assay: Antibacterial activity against hospital-acquired methicillin-resistant Staphylococcus aureus ATCC 33592 incubated for 72 hrs; assay type: functional; conditions: ATCC 33592, 72 h
[7] = Stability in buffer solution assessed as decomposition at pH 10 by LCMS analysis; assay type: physicochemical
Enterococcus faecalis = assay: Antibacterial activity against Enterococcus faecalis OG1RF incubated for 72 hrs; assay type: functional
[8] = Ratio of MIC for community acquired methicillin-resistant Staphylococcus aureus USA300-0114 to HC20 for sheep RBC assessed as compound concentration required for <20% hemolysis
[9] = Stability of the compound in pure water by LCMS method; assay type: physicochemical
[10] = Ratio of MIC for Enterococcus faecalis OG1RF to HC20 for sheep RBC assessed as compound concentration required for <20% hemolysis
[11] = Solubility of the compound in buffer solution at pH 10 by LCMS analysis; assay type: physicochemical
[12] = Stability in buffer solution at pH 7 after 16 hrs by LCMS analysis; assay type: physicochemical; conditions: read-out: Stability
[13] = Stability in buffer solution at pH 10 after 16 hrs by LCMS analysis; assay type: physicochemical; conditions: read-out: Stability

SMILES	T1/2 [1] [h]	MIC (Escherichia coli) [µM]	MIC (Staphylococcus aureus [2]) [µM]	MIC (Staphylococcus aureus [3]) [µM]	MIC (Pseudomonas aeruginosa) [µM]	Stability [4]	remaining at 72 h [5] [%]	MIC (Staphylococcus aureus [6]) [µM]	Stability [7]	MIC (Enterococcus faecalis) [µM]	Ratio [8]	Stability [9]	Ratio [10]	solubility [11]	remaining at 16 h [12] [%]	remaining at 16 h [13] [%]
CCCCCCCCCCOC(=O)C[N+](C)(C)CCN1CC[N+](C)(CC(=O)OCCCCCCCCCC)CC1.[Br-].[Br-]	3	2	2	2	16	Unstable	≥ 90	2	Unstable	4						
CCCCCCCCCCCCCCOC(=O)C[N+](C)(C)CCC[N+](C)(CCC[N+](C)(C)CC(=O)OCCCCCCCCCCCCCC)CC(=O)OCCCCCCCCCCCCCC.[Br-].[Br-].[Br-]		63	16	63	250			32		32	4	Stable				
CCCCCCCCCCOC(=O)C[N+](C)(C)CCCN(CCC[N+](C)(C)CC(=O)OCCCCCCCCCC)CCC[N+](C)(C)CC(=O)OCCCCCCCCCC.[Br-].[Br-].[Br-]	3	8	4	2	16	Unstable	≥ 90	4	Unstable	8						
CCCCCCCCCCCCCCOC(=O)C[N+](C)(C)CCCN(CCC[N+](C)(C)CC(=O)OCCCCCCCCCCCCCC)CCC[N+](C)(C)CC(=O)OCCCCCCCCCCCCCC.[Br-].[Br-].[Br-]		32	16	125	250			32		16	4	Stable	4			
CCCCCCCCCCNC(=O)C[N+](C)(C)CCN1CC[N+](C)(CC(=O)NCCCCCCCCCC)CC1.[Br-].[Br-]		1	0.5	0.5	2		≥ 90	0.5	Unstable	0.5				Insoluble	> 80	> 80
CCCCCCCCCCNC(=O)C[N+](C)(C)CCCN(CCC[N+](C)(C)CC(=O)NCCCCCCCCCC)CCC[N+](C)(C)CC(=O)NCCCCCCCCCC.[Br-].[Br-].[Br-]		1	0.5	1	8		≥ 90	1	Unstable	1				Insoluble	> 80	> 80

Reference: ChEMBL document CHEMBL4038298, “Ester- and amide-containing multiQACs: Exploring multicationic soft antimicrobial agents” (Bioorg Med Chem Lett, 2017)
